Measurements as given in PubChem BioAssay (NCI).
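GI50 = concentration required for 50% inhibition of growth. TGI is the concentration that stops growth completely.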

Key:
Assay in all cases: NCI tumour cell line growth inhibition, 384-well format
786-0 renal = system: 786-0 renal
A498 renal = system: A498 renal
A549 NSCLC = system: A549 NSCLC
ACHN renal = system: ACHN renal
BT-549 breast = system: BT-549 breast
CAKI-1 renal = system: CAKI-1 renal
CCRF-CEM leukemia = system: CCRF-CEM leukemia
COLO 205 colon = system: COLO 205 colon
DU-145 prostate = system: DU-145 prostate
EKVX NSCLC = system: EKVX NSCLC
HCC-2998 colon = system: HCC-2998 colon
HCT-116 colon = system: HCT-116 colon
HCT-15 colon = system: HCT-15 colon
HL-60(TB) leukemia = system: HL-60(TB) leukemia
HOP-62 NSCLC = system: HOP-62 NSCLC
HS 578T breast = system: HS 578T breast
HT29 colon = system: HT29 colon
IGROV1 ovarian = system: IGROV1 ovarian
K-562 leukemia = system: K-562 leukemia
KM12 colon = system: KM12 colon
LOX IMVI melanoma = system: LOX IMVI melanoma
M14 melanoma = system: M14 melanoma
MALME-3M melanoma = system: MALME-3M melanoma
MCF7 breast = system: MCF7 breast
MDA-MB-435 melanoma = system: MDA-MB-435 melanoma
MDA-MB-468 breast = system: MDA-MB-468 breast
MOLT-4 leukemia = system: MOLT-4 leukemia
NCI-H226 lung = system: NCI-H226 lung
NCI-H23 lung = system: NCI-H23 lung
NCI-H322M lung = system: NCI-H322M lung
NCI-H460 NSCLC = system: NCI-H460 NSCLC
NCI-H522 lung = system: NCI-H522 lung
NCI/ADR-RES ovarian = system: NCI/ADR-RES ovarian
OVCAR-3 ovarian = system: OVCAR-3 ovarian
OVCAR-4 ovarian = system: OVCAR-4 ovarian
OVCAR-8 ovarian = system: OVCAR-8 ovarian
PC-3 prostate = system: PC-3 prostate
RPMI-8226 leukemia = system: RPMI-8226 leukemia
RXF 393 renal = system: RXF 393 renal
SF-268 CNS = system: SF-268 CNS
SF-295 CNS = system: SF-295 CNS
SF-539 CNS = system: SF-539 CNS
SK-MEL-2 melanoma = system: SK-MEL-2 melanoma
SK-MEL-28 melanoma = system: SK-MEL-28 melanoma
SK-MEL-5 melanoma = system: SK-MEL-5 melanoma
SK-OV-3 ovarian = system: SK-OV-3 ovarian
SN12C renal = system: SN12C renal
SNB-19 CNS = system: SNB-19 CNS
SNB-75 CNS = system: SNB-75 CNS
SW-620 colon = system: SW-620 colon
TK-10 renal = system: TK-10 renal
U251 glioblastoma = system: U251 glioblastoma
UACC-257 melanoma = system: UACC-257 melanoma
UACC-62 melanoma = system: UACC-62 melanoma

SMILES: CCOC(=O)c1cc(/C=C/c2ccc(Cl)cc2Cl)on1
- GI50 ([…]-0 renal): 1840 nM
- TGI (786-0 renal): 3350 nM
- GI50 (A498 renal): 1850 nM
- TGI (A498 renal): 3330 nM
- GI50 (A549 NSCLC): 2440 nM
- TGI (A549 NSCLC): 6100 nM
- GI50 (ACHN renal): 1860 nM
- TGI (ACHN renal): 3390 nM
- GI50 (BT-549 breast): 2110 nM
- TGI (BT-549 breast): 4350 nM
- GI50 (CAKI-1 renal): 1770 nM
- TGI (CAKI-1 renal): 3910 nM
- GI50 (CCRF-CEM leukemia): 1130 nM
- TGI (CCRF-CEM leukemia): 2370 nM
- GI50 (COLO 205 colon): 2720 nM
- TGI (COLO 205 colon): 6540 nM
- GI50 (DU-145 prostate): 4460 nM
- TGI (DU-145 prostate): > 100000 nM
- GI50 (EKVX NSCLC): 2700 nM
- TGI (EKVX NSCLC): 8840 nM
- GI50 (HCC-2998 colon): 1960 nM
- TGI (HCC-2998 colon): 3970 nM
- GI50 (HCT-116 colon): 740 nM
- TGI (HCT-116 colon): 2040 nM
- GI50 (HCT-15 colon): 1360 nM
- TGI (HCT-15 colon): 4340 nM
- GI50 (HL-60(TB) leukemia): 818 nM
- TGI (HL-60(TB) leukemia): 2040 nM
- GI50 (HOP-62 NSCLC): 469 nM
- TGI (HOP-62 NSCLC): 2830 nM
- GI50 (HS 578T breast): 1970 nM
- TGI (HS 578T breast): 3540 nM
- GI50 (HT29 colon): 1920 nM
- TGI (HT29 colon): 4220 nM
- GI50 (IGROV1 ovarian): 2090 nM
- TGI (IGROV1 ovarian): 4340 nM
- GI50 (K-562 leukemia): 10700 nM
- TGI (K-562 leukemia): 30800 nM
- GI50 (KM12 colon): 932 nM
- TGI (KM12 colon): 3930 nM
- GI50 (LOX IMVI melanoma): 1910 nM
- TGI (LOX IMVI melanoma): 3630 nM
- GI50 (M14 melanoma): 3270 nM
- TGI (M14 melanoma): 8820 nM
- GI50 (MALME-3M melanoma): 2390 nM
- TGI (MALME-3M melanoma): 4050 nM
- GI50 (MCF7 breast): 662 nM
- TGI (MCF7 breast): 2810 nM
- GI50 (MDA-MB-435 melanoma): 3410 nM
- TGI (MDA-MB-435 melanoma): 11300 nM
- GI50 (MDA-MB-468 breast): 2280 nM
- TGI (MDA-MB-468 breast): 3940 nM
- GI50 (MOLT-4 leukemia): 1030 nM
- TGI (MOLT-4 leukemia): 2210 nM
- GI50 (NCI-H226 lung): 1960 nM
- TGI (NCI-H226 lung): 3830 nM
- GI50 (NCI-H23 lung): 2340 nM
- TGI (NCI-H23 lung): 5290 nM
- GI50 (NCI-H322M lung): 4040 nM
- TGI (NCI-H322M lung): 14100 nM
- GI50 (NCI-H460 NSCLC): 1220 nM
- TGI (NCI-H460 NSCLC): 2590 nM
- GI50 (NCI-H522 lung): 2020 nM
- TGI (NCI-H522 lung): 3510 nM
- GI50 (NCI/ADR-RES ovarian): 1840 nM
- TGI (NCI/ADR-RES ovarian): 3300 nM
- GI50 (OVCAR-3 ovarian): 1850 nM
- TGI (OVCAR-3 ovarian): 3550 nM
- GI50 (OVCAR-4 ovarian): 2630 nM
- TGI (OVCAR-4 ovarian): 7190 nM
- GI50 (OVCAR-8 ovarian): 649 nM
- TGI (OVCAR-8 ovarian): 11000 nM
- GI50 (PC-3 prostate): 1970 nM
- TGI (PC-3 prostate): 4050 nM
- GI50 (RPMI-8226 leukemia): 471 nM
- TGI (RPMI-8226 leukemia): 1250 nM
- GI50 (RXF 393 renal): 1990 nM
- TGI (RXF 393 renal): 3460 nM
- GI50 (SF-268 CNS): 4090 nM
- TGI (SF-268 CNS): 13500 nM
- GI50 (SF-295 CNS): 2470 nM
- TGI (SF-295 CNS): 5300 nM
- GI50 (SF-539 CNS): 945 nM
- TGI (SF-539 CNS): 2190 nM
- GI50 (SK-MEL-2 melanoma): 2120 nM
- TGI (SK-MEL-2 melanoma): 4350 nM
- GI50 (SK-MEL-28 melanoma): 2420 nM
- TGI (SK-MEL-28 melanoma): 4390 nM
- GI50 (SK-MEL-5 melanoma): 1770 nM
- TGI (SK-MEL-5 melanoma): 3530 nM
- GI50 (SK-OV-3 ovarian): 2010 nM
- TGI (SK-OV-3 ovarian): 4150 nM
- GI50 (SN12C renal): 1810 nM
- TGI (SN12C renal): 3320 nM
- GI50 (SNB-19 CNS): 3100 nM
- TGI (SNB-19 CNS): 8170 nM
- GI50 (SNB-75 CNS): 3200 nM
- TGI (SNB-75 CNS): 6120 nM
- GI50 (SW-620 colon): 1360 nM
- TGI (SW-620 colon): 3020 nM
- GI50 (TK-10 renal): 2370 nM
- TGI (TK-10 renal): 4710 nM
- GI50 (U251 glioblastoma): 1270 nM
- TGI (U251 glioblastoma): 3300 nM
- GI50 (UACC-257 melanoma): 2950 nM
- TGI (UACC-257 melanoma): 5650 nM
- GI50 (UACC-62 melanoma): 2080 nM
- TGI (UACC-62 melanoma): 4260 nM
